Key:
mouse calvaria = settings: in vitro organ culture; cited from earlier work
G292 cells = settings: in vitro; LTB4 at higher concentration (0.3-1 micromolar); cited from earlier work
[1] = test system: primary rat calvaria (osteoblast) cultures; settings: in vitro; cited from earlier work
[2] = test system: fetal rat calvaria (osteoblast) cells; settings: in vitro; cited from earlier work
Saos-2 cells = settings: in vitro; LTB4 at higher concentration (0.3-1 micromolar); cited from earlier work
closed femur fracture = test: Closed femur fracture healing in rats treated with 5-LO inhibitors (radiographs, torsional mechanical testing); type: in vivo, Sprague-Dawley rats; settings: for fracture bridging / healing on radiographs: Example 4, FIG. 8, NDGA 30 mg/kg or AA-861 5 mg/kg twice daily until day 21, 3 weeks of healing; for greater peak torque than vehicle treated rats: Example 4, FIG. 8D, torsional mechanical testing after 5 weeks of healing, NDGA 30 mg/kg, AA-861 5 mg/kg; for mode of femur failure in torsional mechanical testing: Example 4, after 5 weeks of healing
Description: Sprague-Dawley rats (3 months old) underwent a standard closed femur fracture procedure as described in the art [Simon et al., Cyclo-oxygenase 2 function is essential for bone fracture healing. Journal of Bone and Mineral Research, 17: 963-976 (2002); Bonnarens and Einhorn, Production of a standard closed fracture in laboratory animal bone. Journal of Orthopaedic Research, 2: 97-101 (1984)]. The impending fracture was stabilized with an intramedullary stainless steel pin. Beginning 4 hours after fracture the rats were treated with 30 mg/kg of NDGA (nordihydrogaiaretic acid) in 1% methylcellulose (5-lipoxygenase inhibitor treatment group) or with carrier only (1% methylcellulose). The day after surgery and continuing until day 14 post-fracture, experimental rats were treated with 2 doses of NDGA (30 mg/kg), the first dose between […] and then again with another NDGA dose 8-10 hours later. Control rats were treated similarly but with carrier only (1% methylcellulose). Three weeks after fracture, the rats were sacrificed, the fractured femurs were harvested, and high resolution radiographs were made of the fractured femurs using a Packard Faxitron and Kodak MinR2000 mammography film. Two representative radiographs are shown in FIG. 7 for each treatment group: control and 5-lipoxygenase (5-LO) inhibitor treated.
Sprague-Dawley rats (3 months old) underwent a standard closed femur fracture procedure as described in the art (Simon et al., Cyclo-oxygenase 2 function is essential for bone fracture healing. Journal of Bone and Mineral Research, 17: 963-976 (2002); Bonnarens and Einhorn, Production of a standard closed fracture in laboratory animal bone. Journal of Orthopaedic Research, 2: 97-101 (1984)]. The impending fracture was stabilized with an intramedullary stainless steel pin. Beginning 4 hours after fracture the rats were treated with vehicle (1% methylcellulose) or inhibitors of 5-LO suspended in 1% methylcellulose. Inhibitor A (NDGA) was administered at 30 mg/kg and Inhibitor B (AA-861) was administered at 5 mg/kg. The day after surgery and continuing until day 21 post-fracture, experimental rats were treated with 2 doses of inhibitor (either A or B), the first dose between 8-10 AM and then again with another dose 8-10 hours later. Control rats were treated similarly but with carrier only (1% methylcellulose). Three weeks after fracture the rats were anesthetized and high resolution radiographs were made of the fractured femurs using a Packard Faxitron and Kodak MinR2000 mammography film (FIGS. 8A, 8B, and 8C). Five weeks after fracture the rats were sacrificed, femurs resected, and assayed for structural mechanical properties by torsional mechanical testing (FIG. 8D).

[3] = test system: 5-lipoxygenase or LTA4 hydrolase activity measured by the level of LTB4 in platelet-rich plasma; test: Ex vivo treatment of platelet-rich plasma, leukotriene B4 levels by enzyme-linked immune-assay; type: cell-based, rat; settings: FIG. 9; 1 ug/ml; activated with thrombin and calcium chloride
Excerpt: Platelet-rich plasma is used clinically to augment fracture healing and other osteogenic processes [Wrotniak et al. Current opinion about using the platelet-rich gel in orthopaedics and trauma surgery. […] Platelet-rich plasma is enriched with platelets and white blood cells from whole blood by centrifugal separation. White blood cells, such as, macrophages, monocytes, and neutrophils, are a major source of 5-lipoxygenase activity [Woods et al. 5-lipoxygenase and 5-lipoxygenase-activating protein are localized in the nuclear envelope of activated human leukocytes.
Male Sprague-Dawley rats (450-500 g body weight) were used. Platelet-rich plasma was prepared as described previously using differential centrifugation [Gandhi et al. The effects of local platelet rich plasma delivery on diabetic fracture healing. […] Five minutes after drug treatment, the treated platelet-rich plasma was activated by addition of thrombin (100 units/ml) and calcium chloride (10 mg/ml) followed by incubation for 15 minutes at 37° C. The reaction was stopped and the platelet-rich plasma was separated by high-speed centrifugation (14,000 RPM). The supernatant was collected and assayed for leukotriene B4 levels using a commercial enzyme-linked immune-assay from Cayman Chemicals, Ann Arbor, Mich.

[4] = test system: critical-size (8 mm) femur segmental defect; test: Critical-size femur segmental defect repaired with scaffold laden with ex vivo treated bone marrow; type: in vivo, Sprague-Dawley rats; settings: for mineralized tissue in the femur segmental defect on radiographs: 2 weeks after implantation, marrow treated ex vivo, versus vehicle-bone marrow scaffold control; for bone remodeling at the fracture site compared to control rats: FIG. 10, bone marrow aspirate treated ex vivo prior to administration
Description: Critical-size (8 mm) segmental defects were made in the right femur of 450-500 g male Sprague-Dawley rats. The defects were repaired as described by Rai et al. [Combination of platelet-rich plasma with polycaprolactone-tricalcium phosphate scaffolds for segmental defect repair. Journal of Biomedical Materials Research 81A:888-899 (2007)] except the polycaprolactone-tricalcium phosphate scaffolds were filled with autologous bone marrow that was treated ex vivo as described below rather than with platelet-rich plasma.
Following induction of anesthesia, bone marrow was harvested from the left femur of each rat. A medial peripatellar incision was made to the left femur and the patella was dislocated laterally to provide access to the femoral condyles. Using an 18 gauge needle, a hole was drilled into the femoral canal and the bone marrow collected into the bore of the 18 gauge needle. The marrow was forced from the syringe needle into a small test tube using 100 μl of saline containing 20 units of heparin. The harvested marrow was then treated with the dimethyl sulfoxide (DMSO) or AA-861 (1 μl of 100 mg/ml in DMSO) which is a 5-LO inhibitor. After 5 minutes, 20 μl of a thrombin and CaCl2 solution (1,000 units thrombin per ml in 10% CaCl2) was added to each marrow sample. Each marrow sample was gently mixed and applied to a polycaprolactone-tricalcium phosphate scaffold that was set upright in a 0.2 ml tube. Each marrow-laden scaffold was incubated at room temperature for 10 minutes to allow clotting to occur and was then inserted into the femoral defects.
Critical-size femoral defects were made in male Sprague-Dawley rats as described above in EXAMPLE 7. The defects were treated with bone marrow laden scaffolds as described above. […] Journal of Medicinal Chemistry 43:721-735 (2000)] (FIG. 10C), or with (c) LY-255283 (5 μl of a 1 mg/ml solution in DMSO) which is a leukotriene B4 receptor antagonist [Herron et al. Leukotriene B4 receptor antagonists: the LY255283 series of hydroxyacetophenones. Journal of Medicinal Chemistry 35:1818-1828 (1992)] (FIG. 10D).

[5] = test system: 8 mm diaphyseal segmental defect in the right femur; test: Femur segmental defect repaired with scaffold impregnated with calcium sulfate containing a leukotriene pathway modifier; type: in vivo, Sprague-Dawley rats; settings: after 3 weeks of healing; local application in calcium sulfate, 1-5% w/w; FIG. 16
Excerpt: Male Sprague-Dawley rats underwent surgery during which an 8 mm diaphyseal, segmental defect in the right femur was made as described by Rai et al. [Combination of platelet-rich plasma with polycaprolactone-tricalcium phosphate scaffolds for segmental bone defect repair. Journal of Biomedical Materials Research […]:888-899 (2007)]. The defect was repaired with a polycaprolactone-tricalcium phosphate scaffold (8 mm long×3 mm diameter; Osteopore International, Singapore) or the scaffold impregnated with calcium sulfate containing a leukotriene pathway modifier. […] Journal of Medicinal Chemistry 43:721-735 (2000)]; and LY-255283 (1% w/w), a potent and specific leukotriene B4 receptor antagonist [Herron et al. Leukotriene B4 receptor antagonists: the LY255283 series of hydroxyacetophenones. Journal of Medicinal Chemistry 35:1818-1828 (1992)]. Healing of the segmental defects was assessed after 3 weeks of healing by radiographs (FIG. 16).

In the case of `CCCCC/C=C\C[C@@H](O)/C=C/C=C/C=C\[C@@H](O)CCCC(=O)O` [LTB4, leukotriene B4], the “BMP2 induced increase in mouse calvaria thickness” value (mouse calvaria) is given as “prevented”, the G292 cell proliferation (G292 cells) is given as “promote proliferation” and the “proliferation of primary rat calvaria (osteoblast) cultures” value [1] is given as “reduces proliferation”. The alkaline phosphatase activity [2] was “reduce”, the bone nodule formation [2] was “reduce” and the Saos-2 cell proliferation (Saos-2 cells) was “promote proliferation”.

For `CC1=C(C)C(=O)C(CCCCC#CCCCC#CCO)=C(C)C1=O` [AA-861, 2-(12-hydroxydodeca-5,10-diynyl)-3,5,6-trimethyl-1,4-benzoquinone], the “fracture bridging / healing on radiographs” value (closed femur fracture) was “fractures healing faster”, the “greater peak torque than vehicle treated rats” value (closed femur fracture) was 53% and the “mode of femur failure in torsional mechanical testing” value (closed femur fracture) was “failed as boney unions”. The “activity of 5-lipoxygenase or LTA4 hydrolase, measured by the level of the LTB4 metabolite, in platelet-rich plasma” value (“activity … in platelet-rich plasma” below) [3] was “significantly reduces”, the “mineralized tissue in the femur segmental defect on radiographs” value (“mineralized tissue” below) [4] was “more extensive mineralized tissue” and the “bone remodeling at the fracture site compared to control rats” value (“bone remodeling … compared to control rats” below) [4] was “more extensive bone remodeling”. For the same molecule, the “bone formation in the segmental defect region on radiographs compared to scaffold-only group” value (“bone formation … to scaffold-only group” below) [5] was “significantly more bone formation” and the Saos-2 cell proliferation (Saos-2 cells) was “no effect”.

For `CCCCC/C=C\C\C=C/C=C/C=C/[C@@H](SC[C@H](N)C(=O)NCC(=O)O)[C@@H](O)CCCC(=O)O` [LTD4, leukotriene D4], the alkaline phosphatase activity [2] is given as “no effect” and the bone nodule formation [2] is given as “no effect”.

In the case of `CC(c1cc2ccccc2s1)N(O)C(N)=O` (centres unmarked) [zileuton, N-(1-benzo[b]thien-2-ylethyl)-N-hydroxyurea], the “activity … in platelet-rich plasma” value [3] was “significantly reduces” and the “bone remodeling … compared to control rats” value [4] was “more extensive bone remodeling”.

With `CC(Cc1ccc(O)c(O)c1)C(C)Cc1ccc(O)c(O)c1` (centres unmarked) [NDGA, nordihydroguaiaretic acid] the “fracture bridging / healing on radiographs” value (closed femur fracture) was “fractures healing faster”, the “greater peak torque than vehicle treated rats” value (closed femur fracture) was 22% and the “mode of femur failure in torsional mechanical testing” value (closed femur fracture) was “failed as boney unions”.

For 5-hydroxyeicosatetraenoic acid [5-HETE], the “BMP2 induced increase in mouse calvaria thickness” value (mouse calvaria) is given as “prevented”, the alkaline phosphatase activity [2] is given as “reduce” and the bone nodule formation [2] is given as “reduce”.

With `c1ccc(-c2ccc(OCCN3CCCC3)cc2)cc1` [SC-22716, 1-[2-(4-Phenylphenoxy)ethyl]pyrrolidine] the “mineralized tissue” value [4] was “more extensive mineralized tissue”, the “bone remodeling … compared to control rats” value [4] was “more extensive bone remodeling” and the “bone formation … to scaffold-only group” value [5] was “significantly more bone formation”.

For `CCCCC/C=C\C\C=C/C=C/C=C/[C@@H](SC[C@H](NC(=O)CC[C@H](N)C(=O)O)C(=O)NCC(=O)O)[C@@H](O)CCCC(=O)O` [LTC4, leukotriene C4], the G292 cell proliferation (G292 cells) is listed as “promote proliferation”, the “proliferation of primary rat calvaria (osteoblast) cultures” value [1] is listed as “no effect” and the Saos-2 cell proliferation (Saos-2 cells) is listed as “no effect”.

With `CC(C)c1ccc2c(c1)c(SC(C)(C)C)c(CC(C)(C)C(=O)O)n2Cc1ccc(Cl)cc1` [MK-886, 3-[1-(4-chlorobenzyl)-3-t-butyl-thio-5-isopropylindol-2-yl]-2,2-dimethylpropanoic acid] the “activity … in platelet-rich plasma” value [3] was “significantly reduces” and the “bone formation … to scaffold-only group” value [5] was “significantly more bone formation”.

For `CCc1cc(C(C)=O)c(O)cc1OCCCCCC(C)(C)c1nnn[nH]1` [LY-255283, 1-(5-ethyl-2-hydroxy-4-(6-methyl-6-(1H-tetrazol-5-yl)-heptyloxy)phenyl)ethanone], the “mineralized tissue” value [4] was “some evident mineralized tissue”, the “bone remodeling … compared to control rats” value [4] was “more extensive bone remodeling” and the “bone formation … to scaffold-only group” value [5] was “significantly more bone formation”.

— patent US20110105959A1, “Novel Methods for Bone Treatment by Modulating an Arachidonic Acid Metabolic or Signaling Pathway” (ACCELALOX, INC., priority 2008, published 2011)
